According to patent US20240400560A1, “BICYCLIC HETEROCYCLIC DERIVATIVE HAVING VIRAL GROWTH INHIBITORY ACTIVITY AND PHARMACEUTICAL COMPOSITION CONTAINING SAME” (Shionogi & Co., Ltd., priority 2021, published 2024):
Like-named read-outs stand apart in the source and are kept apart here.

What was measured:
SARS-CoV-2 = experiment: Inhibitory activity of cytopathic effect (CPE) in HEK293T/ACE2-TMPRSS2 cells; type: cell-based; conditions: Severe acute respiratory syndrome coronavirus 2, HEK-293T, 72 h
SARS-CoV-2 3CL protease = SARS-CoV-2 3CL protease (Severe acute respiratory syndrome coronavirus 2, UniProt P0DTD1); experiment: Inhibitory activity test against SARS-CoV-2 3CL proteases; type: biochemical
[1] = HEK293T/ACE2-TMPRSS2 cells, cultured 3 days, CellTiter-Glo 2.0 luminescence, read-out: EC50 (50% SARS-CoV-2 infected cell death inhibitory concentration)
[2] = read-out: IC50 (50% SARS-CoV-2 3CL protease inhibitory concentration)
[3] = 50% SARS-CoV-2 infected cell death inhibitory concentration, HEK293T/ACE2-TMPRSS2 cells, CellTiter-Glo 2.0 after 3 days culture, read-out: EC50
[4] = read-out: EC50 (50% SARS-CoV-2 infected cell death inhibitory concentration)
[5] = IC50 (50% SARS-CoV-2 3CL protease inhibitory concentration)

For `O=c1c2c(=O)n(-c3cnc4cc(F)ccn34)c(=O)n(-c3ccc(F)c(Cl)c3)c2cc2n1CC[C@H]1CCCCN21` [Compound I-1063], the EC50 (SARS-CoV-2; [1]) was 100 to 1000 nM and the IC50 (SARS-CoV-2 3CL protease; [2]) was under 100 nM.
`COc1nc2c(=O)n(Cc3ncn(C)n3)c(=O)n(Cc3cc(F)c(F)c(Cl)c3)c2cc1-c1ncc(F)cc1Cl` [Compound I-0578] gave an EC50 (SARS-CoV-2; [1]) of under 100 nM and an IC50 (SARS-CoV-2 3CL protease; [2]) of under 100 nM.
`COc1nc(C(C)C)cc2c1c(=O)n(-c1cnc3cc(F)ccn13)c(=O)n2-c1ccc(F)c(Cl)c1` [Compound I-0976] was tested, and the EC50 (SARS-CoV-2; [1]) was under 100 nM and the IC50 (SARS-CoV-2 3CL protease; [2]) was under 100 nM.
In the case of `CCc1nc(N2CCC(F)(F)C2)cc2c1c(=O)n(-c1cncc(Cl)c1)c(=O)n2-c1ccc(F)c(F)c1` [Compound I-1023], the EC50 (SARS-CoV-2; [1]) is reported as under 100 nM and the IC50 (SARS-CoV-2 3CL protease; [2]) is reported as under 100 nM.
Molecule `COc1cc(-c2cc3nc(C(F)F)[nH]c3cc2Cl)cc2c1c(=O)n(Cc1ncn(C)n1)c(=O)n2Cc1cc(F)c(F)c(F)c1` [Compound I-0848] has an EC50 (SARS-CoV-2; [1]) of 100 to 1000 nM and an IC50 (SARS-CoV-2 3CL protease; [2]) of under 100 nM.
Molecule `COc1nc(N2CC[C@@H](F)C2)cc2c1c(=O)n(-c1cnc3cc(F)ccn13)c(=O)n2-c1ccc(F)c(Cl)c1` [Compound I-0746] has an EC50 (SARS-CoV-2; [3]) of 5.6 nM and an IC50 (SARS-CoV-2 3CL protease; [2]) of 1.4 nM.
In the case of `COc1nc(N2CCC(F)(F)C2)cc2c1c(=O)n(-c1cncc(C(F)F)c1)c(=O)n2-c1ccc(F)c(Cl)c1` [Compound I-1018], the EC50 (SARS-CoV-2; [1]) is reported as under 100 nM and the IC50 (SARS-CoV-2 3CL protease; [2]) is reported as under 100 nM.
`CNC(=O)c1ccc(Cl)c(-c2cc3c(nc2OC)c(=O)n(Cc2ncn(C)n2)c(=O)n3Cc2cc(F)c(F)c(Cl)c2)n1` [Compound I-0878] gave an EC50 (SARS-CoV-2; [3]) of 13.7 nM and an IC50 (SARS-CoV-2 3CL protease; [2]) of 3.9 nM.
`COc1nc(NC2CC2)cc2c1c(=O)n(-c1cnc3cc(F)ccn13)c(=O)n2-c1ccc(F)c(Cl)c1` [Compound I-1029] gave an EC50 (SARS-CoV-2; [1]) of under 100 nM and an IC50 (SARS-CoV-2 3CL protease; [2]) of under 100 nM.
In the case of `COc1nc(N2CC[C@@H](F)C2)cc2c1c(=O)n(-c1cnc3cc(F)ccn13)c(=O)n2-c1ccc(F)c(F)c1` [Compound I-0982], the EC50 (SARS-CoV-2; [1]) is reported as under 100 nM and the IC50 (SARS-CoV-2 3CL protease; [2]) is reported as under 100 nM.
`COc1ccc(Cl)c(-c2cc3c(nc2OC)c(=O)n(Cc2ncn(C)n2)c(=O)n3Cc2cc(F)c(F)c(Cl)c2)n1` [Compound I-0820] gave an EC50 (SARS-CoV-2; [1]) of under 100 nM and an IC50 (SARS-CoV-2 3CL protease; [2]) of under 100 nM.
With `COC[C@@H]1CCN(c2cc3c(c(OC)n2)c(=O)n(-c2cnc4cc(F)ccn24)c(=O)n3-c2ccc(F)c(Cl)c2)C1` [Compound I-1033] the EC50 (SARS-CoV-2; [1]) was under 100 nM and the IC50 (SARS-CoV-2 3CL protease; [2]) was under 100 nM.
Work on `COc1nc(N2CC[C@@H](O)C2)cc2c1c(=O)n(-c1cnc3cc(F)ccn13)c(=O)n2Cc1cc(F)c(F)c(F)c1` [Compound I-0730] yielded an EC50 (SARS-CoV-2; [1]) of under 100 nM and an IC50 (SARS-CoV-2 3CL protease; [2]) of under 100 nM.
With `Cn1cnc(Cn2c(=O)c3c(F)c(C4CC4)c(-c4cc(C#N)ccc4Cl)cc3n(Cc3cc(F)c(F)c(Cl)c3)c2=O)n1` [Compound I-0638] the EC50 (SARS-CoV-2; [1]) was under 100 nM and the IC50 (SARS-CoV-2 3CL protease; [2]) was under 100 nM.
For `COc1nc(N2CC[C@@H](F)C2)cc2c1c(=O)n(Cc1ncn(C)n1)c(=O)n2-c1ccc(C)c(Cl)c1` [Compound I-0800], the EC50 (SARS-CoV-2; [1]) was under 100 nM and the IC50 (SARS-CoV-2 3CL protease; [2]) was under 100 nM.
In the case of `COc1nc(N2[C@@H]3CC[C@H]2CNC3)cc2c1c(=O)n(-c1cnc3cc(F)ccn13)c(=O)n2Cc1cc(F)c(F)c(F)c1` [Compound I-0682], the EC50 (SARS-CoV-2; [4]) is reported as under 100 nM and the IC50 (SARS-CoV-2 3CL protease; [5]) is reported as under 100 nM.
Molecule `COc1nc(-c2cc(C#N)ccc2Cl)cc2c1c(=O)n(-c1cnc3ccc(F)cn13)c(=O)n2Cc1cc(F)c(F)c(F)c1` [Compound I-0680] has an EC50 (SARS-CoV-2; [1]) of under 100 nM and an IC50 (SARS-CoV-2 3CL protease; [2]) of under 100 nM.
`COc1nc(N2CC[C@@H](C(=O)O)C2)cc2c1c(=O)n(-c1cnc3cc(F)ccn13)c(=O)n2-c1ccc(F)c(Cl)c1` [Compound I-0625] was tested, and the EC50 (SARS-CoV-2; [1]) was 100 to 1000 nM and the IC50 (SARS-CoV-2 3CL protease; [2]) was under 100 nM.
In the case of `Cn1cnc(Cn2c(=O)c3c4nccnc4c(-c4cc(C(C)(C)O)ccc4Cl)cc3n(Cc3cc(F)c(F)c(Cl)c3)c2=O)n1` [Compound I-0810], the EC50 (SARS-CoV-2; [3]) is reported as 19.4 nM and the IC50 (SARS-CoV-2 3CL protease; [2]) is reported as 1.3 nM.
With `COc1nc(N2CC[C@@H](OC)C2)cc2c1c(=O)n(-c1cncc(Cl)c1)c(=O)n2-c1ccc(F)c(Cl)c1` [Compound I-0744] the EC50 (SARS-CoV-2; [3]) was 6.94 nM and the IC50 (SARS-CoV-2 3CL protease; [2]) was 1.4 nM.
With `COc1cc(-c2cc3c(C(F)(F)F)n[nH]c3cc2Cl)cc2c1c(=O)n(Cc1ncn(C)n1)c(=O)n2Cc1cc(F)c(F)c(F)c1` [Compound I-0875] the EC50 (SARS-CoV-2; [1]) was under 100 nM and the IC50 (SARS-CoV-2 3CL protease; [2]) was under 100 nM.
With `COc1cc(-c2cccc(C#N)c2Cl)cc2c1c(=O)n(Cc1ncn(C)n1)c(=O)n2Cc1cc(F)c(F)c(F)c1` [Compound I-0847] the EC50 (SARS-CoV-2; [1]) was 100 to 1000 nM and the IC50 (SARS-CoV-2 3CL protease; [2]) was under 100 nM.
Work on `COc1ccc(Cl)c(-c2cc3c(nc2OC)c(=O)n(Cc2ncn(C)n2)c(=O)n3Cc2cc(Cl)c(F)cc2C)n1` [Compound I-0821] yielded an EC50 (SARS-CoV-2; [3]) of 37.6 nM and an IC50 (SARS-CoV-2 3CL protease; [2]) of 10 nM.
`COc1cc(-c2cc(P(C)(C)=O)ccc2Cl)cc2c1c(=O)n(Cc1ncn(C)n1)c(=O)n2Cc1cc(F)c(F)c(F)c1` [Compound I-0893] was tested, and the EC50 (SARS-CoV-2; [3]) was 2330 nM and the IC50 (SARS-CoV-2 3CL protease; [2]) was 36 nM.
`Cn1cnc(Cn2c(=O)c3c4nccnc4c(N4CCC(F)(F)C4)cc3n(Cc3cc(F)c(F)c(Cl)c3)c2=O)n1` [Compound I-0813] showed an EC50 (SARS-CoV-2; [1]) of under 100 nM and an IC50 (SARS-CoV-2 3CL protease; [2]) of under 100 nM.
In the case of `COc1nc(N2CC[C@@H](O)C2)cc2c1c(=O)n(-c1cnc3cc(F)ccn13)c(=O)n2Cc1cc(F)c(F)c(Cl)c1` [Compound I-0734], the EC50 (SARS-CoV-2; [1]) is reported as under 100 nM and the IC50 (SARS-CoV-2 3CL protease; [2]) is reported as under 100 nM.
`COc1nc(N2C[C@@H]3[C@H](C2)C3(F)F)cc2c1c(=O)n(-c1cnc3cc(F)ccn13)c(=O)n2-c1ccc(F)c(Cl)c1` [Compound I-0759] gave an EC50 (SARS-CoV-2; [1]) of under 100 nM and an IC50 (SARS-CoV-2 3CL protease; [2]) of under 100 nM.
Work on `COc1nc(-c2c(Cl)ccc3c2CCN(C)C3=O)cc2c1c(=O)n(Cc1ncn(C)n1)c(=O)n2Cc1cc(F)c(F)c(Cl)c1` [Compound I-0874] yielded an EC50 (SARS-CoV-2; [3]) of 39.2 nM and an IC50 (SARS-CoV-2 3CL protease; [2]) of 9.4 nM.
`Cn1cnc(Cn2c(=O)c3c4c(c(-c5ncc(F)cc5Cl)cc3n(Cc3cc(F)c(F)c(Cl)c3)c2=O)CCO4)n1` [Compound I-0561] showed an EC50 (SARS-CoV-2; [1]) of under 100 nM and an IC50 (SARS-CoV-2 3CL protease; [2]) of under 100 nM.
Molecule `COc1nc(C2CCOCC2)cc2c1c(=O)n(-c1cnc3cc(F)ccn13)c(=O)n2-c1ccc(F)c(Cl)c1` [Compound I-1021] has an EC50 (SARS-CoV-2; [3]) of 16.1 nM and an IC50 (SARS-CoV-2 3CL protease; [2]) of 12 nM.
In the case of `COc1cc(-c2ccc(CC#N)cc2Cl)cc2c1c(=O)n(Cc1ncn(C)n1)c(=O)n2Cc1cc(F)c(F)c(F)c1` [Compound I-0907], the EC50 (SARS-CoV-2; [1]) is reported as 100 to 1000 nM and the IC50 (SARS-CoV-2 3CL protease; [2]) is reported as under 100 nM.
With `COc1nc(N2CC[C@@H](C#N)C2)cc2c1c(=O)n(-c1cnc3cc(F)ccn13)c(=O)n2-c1ccc(F)c(Cl)c1` [Compound I-0652] the EC50 (SARS-CoV-2; [3]) was 7.43 nM and the IC50 (SARS-CoV-2 3CL protease; [2]) was 1.4 nM.
For `COc1nc(N2CC[C@@H](OC)C2)cc2c1c(=O)n(-c1cnc3cc(F)ccn13)c(=O)n2Cc1cc(F)c(F)c(Cl)c1` [Compound I-0735], the EC50 (SARS-CoV-2; [1]) was under 100 nM and the IC50 (SARS-CoV-2 3CL protease; [2]) was under 100 nM.
`COc1nc(N2C[C@@H]3C[C@H]2CO3)cc2c1c(=O)n(-c1cncc(F)c1)c(=O)n2-c1ccc(F)c(F)c1` [Compound I-1030] showed an EC50 (SARS-CoV-2; [1]) of under 100 nM and an IC50 (SARS-CoV-2 3CL protease; [2]) of under 100 nM.
Molecule `[2H]C([2H])([2H])O[C@@H]1CCN(c2cc3c(c(OC)n2)c(=O)n(-c2cnc4cc(F)ccn24)c(=O)n3-c2ccc(F)c(C(F)(F)F)c2)C1` [Compound I-1011] has an EC50 (SARS-CoV-2; [1]) of under 100 nM and an IC50 (SARS-CoV-2 3CL protease; [2]) of under 100 nM.
`COc1nc(N2[C@@H]3CC[C@H]2CNC3)cc2c1c(=O)n(-c1cnc3ccc(Cl)cn13)c(=O)n2Cc1cc(Cl)ccc1Cl` [Compound I-0649] gave an EC50 (SARS-CoV-2; [4]) of under 100 nM and an IC50 (SARS-CoV-2 3CL protease; [5]) of under 100 nM.
`Cn1cnc(Cn2c(=O)c3c4nccnc4c(-c4cc(C(C)(C)O)c(F)cc4Cl)cc3n(Cc3cc(F)c(F)c(Cl)c3)c2=O)n1` [Compound I-0815] gave an EC50 (SARS-CoV-2; [1]) of under 100 nM and an IC50 (SARS-CoV-2 3CL protease; [2]) of under 100 nM.
Molecule `Cn1cnc(Cn2c(=O)c3c4ncn(C)c4c(-c4cc(C#N)ccc4Cl)cc3n(Cc3cc(F)c(F)c(F)c3)c2=O)n1` [Compound I-0556] has an EC50 (SARS-CoV-2; [3]) of 376 nM and an IC50 (SARS-CoV-2 3CL protease; [2]) of 0.94 nM.
